Results from paper PMC3669129, “Fast, Non-Competitive and Reversible Inhibition of NMDA-Activated Currents by 2-BFI Confers Neuroprotection” (PLoS ONE, 2013).
Like-named read-outs stand apart in the source and are kept apart here.

Legend:
[1] = system: NMDA receptors; assay: Whole-cell patch-clamp recording of NMDA-activated current in cultured cortical neurons; format: cell-based, rat; conditions: for EC50: n = 6–8
Protocol: (§1) Primary cortical neurons were prepared from embryonic E18 Sprague-Dawley rats and cultured in neurobasal medium supplemented with B27 [24]. Briefly, cortices were explanted and cleaned free of meninges. The cortices were placed in D-Hanks’ solution and digested at 37°C with 0.05% trypsin-EDTA for 6 min. They were subsequently resuspended in DMEM medium supplemented with 20% fetal calf serum and 1% penicillin/streptomycin to stop digestion and were further dissociated into individual cells by trituration and plated on poly-D-lysine-coated glass coverslips in culture dishes at a density of 7×10^5 cells/ml. After the neurons had attached to the coverslips for 2 hrs, the medium was changed to neurobasal medium containing 2% B27 supplement. Neurons were incubated at 37°C in a humidified atmosphere of 5% CO2 for 7–8 days before electrophysiological experiments.
Whole-cell patch-clamp recordings were carried out at room temperature (22–25°C) using an Axopatch 700A patch-clamp amplifier (Axon Instruments, Inverurie, Scotland). Data acquisition was achieved using a DigiData 1322A with pClamp 9.0 software. The acquisition rate was 10 kHz and signals were filtered at 5 kHz. Patch electrodes were pulled with a Flaming/Brown micropipette puller (Sutter Instruments, Novato, CA) and fire-polished. […] For the voltage-clamp recordings, the capacity transients were cancelled using the resistance capacitance circuit within the amplifier. After the formation of whole-cell configuration, access resistances were generally <15 MΩ. Series resistance compensation was set to 70%–90%. The liquid junction potential was approximately 2 mV and was auto-adjusted each time by pipette offset. To record NMDA/AMPA-activated currents, the external solution [(containing (mM): NaCl 150, KCl 5, CaCl2 0.2, glucose 10 and HEPES 10, pH adjusted to 7.4 with NaOH)] and the pipette solution [containing (mM): KCl 140, MgCl2 2.5, HEPES 10, EGTA 11, ATP 5, pH adjusted to 7.3 with KOH] were used. For voltage-clamp recordings, the membrane potential was held at −70 mV, unless noted otherwise. Drug solutions were prepared in extracellular solutions and applied to neurons by pressure using the 8-Channel Focal Perfusion System (ALA Scientific Instruments, Farmingdale, NY). Neurons were bathed constantly in extracellular solution between drug applications. Drug solution exchange was accomplished by electronic control.
Patch-clamp data was processed using Clampfit 9.0 (Axon Instruments) and then analyzed in Origin 7.5 (OriginLab, Northampton, MA). The dose-response curve was fitted to the logistic equation: y = (A1–A2)/[1+ (x/x0 )^p]+A2, where y is the response, A1 and A2 are the maximum and minimum response, respectively, x0 is the concentration corresponding to half-maximal effect, x is the drug concentration, and p is the Hill coefficient.
The onset and offset rates of 2-BFI were measured from the recordings by the binding kinetic protocol, where a single concentration of 2-BFI was applied in the constant presence of agonists. Tauon and Tauoff were obtained by a single exponential function fit: I = A×[1-exp(-t/τ)]+I 0, where I is the current, I 0 is the steady-state amplitude of the current, A is the difference between the peak and steady state current amplitudes, t is time, and τ is the time constant.

[2] = system: AMPA receptor; assay: Whole-cell patch-clamp recording of AMPA-activated current in cultured cortical neurons; format: cell-based, rat; conditions: 200 µM 2-BFI; 100 µM AMPA; paired t-test P>0.05, n = 8
Protocol: as §1
(§2) Whole-cell patch-clamp recordings were carried out at room temperature (22–25°C) using an Axopatch 700A patch-clamp amplifier (Axon Instruments, Inverurie, Scotland). Data acquisition was achieved using a DigiData 1322A with pClamp 9.0 software. The acquisition rate was 10 kHz and signals were filtered at 5 kHz. Patch electrodes were pulled with a Flaming/Brown micropipette puller (Sutter Instruments, Novato, CA) and fire-polished. […]

[3] = system: rat cortical neurons; assay: Effect of 2-BFI alone on neuronal excitability (current and membrane potential); format: cell-based; conditions: 3–1000 µM 2-BFI
Protocol: as §1, §2

[4] = system: NMDA receptor-mediated [Ca2+]i influx; assay: Ratiometric Fura-2 measurement of NMDA-evoked [Ca2+]i in cortical neurons; format: cell-based, mouse; conditions: for reversibility of block of NMDA receptor-mediated [Ca2+]i influx on removal of inhibitor: MK801 10 µM, 2-BFI 200 µM, memantine 10 µM, NMDA 100 µM, wash with PSS, n = 20 cells per treatment
Protocol: Ratiometric measurement of [Ca^2+]i was performed using Fura-2 AM [25]. Briefly, mouse cortical neurons at 7 days-in-vitro on glass coverslips were loaded with 5 µM Fura-2-AM (Molecular Probes, Eugene, CA) plus 0.02% pluronic (Life Technologies, INC, Burlington, ON, Canada) for 30 min at 37°C. After rinsing with PSS Mg^2+ free buffer containing 2 mM HEPES (pH 7.2), 140 mM NaCl, 5 mM KCl, 2.3 mM CaCl2, and 10 mM glucose, and stabilized in the same buffer for 5 min, Fura-2 intensities were measured using a Northern Eclipse Digital Ratio Image System (EMPIX, Mississauga, ON, Canada) with an Axiovert 200 camera and light source (Zeiss, Thornwood, NY). Fura-2 fluorescence was measured at 510 nm emission with 340/380 nm dual excitation selected by a DG-5 system (Sutter Instrument Company, Novato, CA). [Ca^2+]i concentration was represented by the ratio of florescence intensity between the two excitation wavelengths of R340/380 of Fura-2 after correction for background. R340/380 for 10 cells in one field of each coverslip was averaged. The basal level of [Ca^2+]i was recorded for 20 sec, followed by the application of inhibitors. […] [Ca^2+]i was recorded for 60–100 sec. After washing with PSS buffer for 300 sec, PSS buffer containing 45 mM KCl was added to neurons to record changes in [Ca^2+]i for 60 sec to show viability of neurons. All measurements were repeated for at least 3 times. The data was analyzed using Microsoft Excel and presented as the mean of three experiments.

[5] = system: cortical neurons; assay: Neuroprotection against NMDA excitotoxicity (nuclear staining, Alamar Blue viability); format: cell-based, rat; conditions: for number of condensed nuclei (NMDA-induced neuronal death): nuclear staining of cortical neurons treated with NMDA
Protocol: as §1
After 7 days-in-vitro, cortical neurons were treated with the specific inhibitor for 15 min prior to the addition of 100 µM glutamate or 200 µM NMDA at 37°C. The plates were then incubated for up to 24 h at 37°C in the presence or absence of inhibitors. Untreated cells were also included as controls. At the end of the treatment period, cells were either fixed for staining or subjected to a neuronal viability assay using Alamar Blue (Invitrogen). Stained cells were examined under a fluorescent microscope (Carl Zeiss, AX10 vert 200M), and digital images were taken and analyzed using Image J software (http://rsbweb.nih.gov/ij/). The viability of cortical neurons treated with NMDA, and with or without inhibitors as mentioned, was assayed using an Alamar Blue assay (Invitrogen). Briefly, a 1∶10 dilution of Alamar blue was added to cells for 1 h at 37°C. One third of the medium was removed and read in a 96-well plate using a plate reader with λEx = 530 nm and λEm = 590 nm. At minimum, a triplicate reading was obtained per experiment with three independent repeats.

[6] = system: spectrin breakdown product (SBP); format: cell-based, rat; conditions: 2 h treatment with NMDA; Western blot
[7] = target: [3H]2-BFI binding sites (I2-imidazoline receptors); set-up: method as in PMID 9228188; conditions: cerebral cortex; read-out: Ki for a single class of [3H]2-BFI binding sites; cited from earlier work
[8] = set-up: method as in PMID 9228188; conditions: cited from earlier work
[9] = system: rodents; set-up: method as in PMID 19508825, PMID 20840843, PMID 22771326, PMID 19083996, PMID 21303658; conditions: previous animal studies; cited from earlier work
[10] = system: transient cerebral ischemia; set-up: method as in PMID 19508825, PMID 20840843, PMID 22771326; conditions: rodent model of stroke; cited from earlier work
[11] = system: NMDAR; conditions: read-out: IC50 of memantine; at −70 mV; ref not given; cited from earlier work

Question: With `NCC(=O)O` [glycine] as the compound, how does the “slope factor of glycine concentration-response curve” value ([1]; in the absence of 2-BFI, 30 µM NMDA) read?
Answer: 0.39±0.2

Question: And the EC50 ([1]; in the absence of 2-BFI, 30 µM NMDA, read-out: EC50 of glycine for current activation)?
Answer: 1.52 ± 1.6 µM

Question: And the “slope factor of glycine concentration-response curve” value ([1]; in the presence of 200 µM 2-BFI, 30 µM NMDA)?
Answer: 0.58±0.6

Question: With `c1ccc2oc(C3=NCCN3)cc2c1` [2-BFI, 2-(2-benzofu-ranyl)-2-imidazoline] as the compound, how does the “average reversal potential of current activated by NMDA and glycine” value ([1]; 30 µM NMDA and 1 µM glycine in the presence of 200 µM 2-BFI, n = 6) read?
Answer: 2.8±3.2 mV

Question: What about the IC50 ([1]; 30 µM NMDA plus 1 µM glycine, 2-BFI 10–2000 µM pre-applied 30 s, −70 mV, n = 6, read-out: IC50 for inhibition of NMDA-activated current) of the same compound?
Answer: 124 ± 13.1 µM

Question: And the “slope factor of the concentration-response curve for inhibition of NMDA-activated current” value ([1]; 30 µM NMDA plus 1 µM glycine, −70 mV, n = 6)?
Answer: 1.2±0.1

Question: And the “effect on Emax of NMDA and glycine” value ([1]; 200 µM 2-BFI)?
Answer: greatly reduced

Question: What about the “inhibition of NMDA-induced currents” value ([1]; 200 µM 2-BFI, 30 µM NMDA plus 1 µM glycine, paired t-test P<0.001, n = 8) of the same compound?
Answer: marked inhibition

Question: What about the “voltage dependence of average inhibition of NMDA-activated current” value ([1]; 200 µM 2-BFI, membrane potentials from −60 mV to +60 mV, ANOVA P>0.05, n = 6) of the same compound?
Answer: not significantly different

Question: And the “mode of NMDAR antagonism” value ([1]; EC50s and slope factors of NMDA and glycine unchanged by 200 µM 2-BFI)?
Answer: non-competitive antagonist

Question: And the “reversibility of inhibition of NMDA-activated current” value ([1]; after a few seconds of washing)?
Answer: fully reversible

Question: And the Kd ([1]; from fitted kinetic values, read-out: Kd = Koff/Kon)?
Answer: 305.94 ± 0.3 µM

Question: And the Koff ([1]; kinetic protocol, constant presence of 30 µM NMDA plus 1 µM glycine, single exponential fit)?
Answer: 0.67 ± 0.02 s⁻¹

Question: What about the “inhibition of AMPA-induced currents” value [2] of the same compound?
Answer: did not inhibit

Question: What about the “effect of 2-BFI alone on membrane potential” value [3] of the same compound?
Answer: nor affected the membrane potential

Question: And the “current induced by 2-BFI alone” value ([3]; −50 mV)?
Answer: neither induced any detectable current

Question: And the “effect on NMDA-evoked [Ca2+]i influx” value ([4]; 10–1000 µM 2-BFI, 100 µM NMDA, n = 20 cells per dose point)?
Answer: significantly suppressed

Question: And the “reversibility of block of NMDA receptor-mediated [Ca2+]i influx on removal of inhibitor” value [4]?
Answer: able to respond to NMDA (100 µM) almost immediately

Question: And the “protection against NMDA toxicity, Alamar blue assay” value ([5]; dose- and time-course, paired t-test P<0.01, n = 8)?
Answer: Dose-dependent neuroprotection

Question: What about the “number of condensed nuclei (NMDA-induced neuronal death)” value [5] of the same compound?
Answer: reduced

Question: What about the “level of spectrin breakdown product (SBP)” value [6] of the same compound?
Answer: effectively reduced

Question: What about the Ki [7] of the same compound?
Answer: 0.0098 µM

Question: What about the “crossing of the blood brain barrier” value [8] of the same compound?
Answer: able to cross the blood brain barrier

Question: What about the “side effects of administration to rodents” value [9] of the same compound?
Answer: no visible side effects

Question: What about the “neuroprotection against transient cerebral ischemia” value [10] of the same compound?
Answer: potently and dose-dependently neuroprotective

Question: For `C[C@]12N[C@H](Cc3ccccc31)c1ccccc12` [MK801], which “reversibility of block of NMDA receptor-mediated [Ca2+]i influx on removal of inhibitor” value [4] is on record?
Answer: non-reversibly blocked

Question: What about the “number of condensed nuclei (NMDA-induced neuronal death)” value [5] of the same compound?
Answer: reduced

Question: And the “level of spectrin breakdown product (SBP)” value [6]?
Answer: effectively reduced

Question: Which results are given for `CC12CC3CC(C)(C1)CC(N)(C3)C2` [memantine]?
Answer: reversibility of block of NMDA receptor-mediated [Ca2+]i influx on removal of inhibitor [4]: able to respond to NMDA (100 µM) almost immediately; number of condensed nuclei (NMDA-induced neuronal death) [5]: reduced; level of spectrin breakdown product (SBP) [6]: effectively reduced; IC50 [11]: 1.2 µM

Question: With `CN[C@H](CC(=O)O)C(=O)O` [NMDA, N-methyl-D-aspartic acid] as the compound, how does the “slope factor of NMDA concentration-response curve” value ([1]; in the absence of 2-BFI, 1 µM glycine) read?
Answer: 1.25±0.1

Question: What about the EC50 ([1]; in the absence of 2-BFI, 1 µM glycine, read-out: EC50 of NMDA for current activation) of the same compound?
Answer: 33.7 ± 4.3 µM

Question: And the “slope factor of NMDA concentration-response curve” value ([1]; in the presence of 200 µM 2-BFI, 1 µM glycine)?
Answer: 1.25±0.6

Question: Which results are given for `c1ccc2c(c1)OCC(C1=NCCN1)O2` (stereo not shown) [Idazoxan]?
Answer: crossing of the blood brain barrier [8]: readily cross the blood brain barrier; neuroprotection against transient cerebral ischemia [10]: potently and dose-dependently neuroprotective
